Experiments:
[1] = noted by the HAS; cited from earlier work
TGF-β activation = details: alveolar macrophages from healthy volunteers, dose and exposure dependent; cited from earlier work
[2] = tested on: CD63 expression on basophils; assay: Flow CAST basophil activation test, anti-FcεRI antibody stimulation, CD63/CCR3 flow cytometry on whole blood; assay type: cell-based, human
From the text: To study this modulating action of CD63 by tritoqualine, the inventors have used the basophil and a modified commercial test, the Flow CAST® kit from BULHMANN Laboratories AG (Switzerland), which is a Basophil Activation Test (BAT) that can be used for the in vitro detection of basophil degranulation as well as for the study of immediate type allergic reactions and hypersensitivities.
The test is designed for the in vitro diagnosis of CD63 expression as a surface marker of activated basophils. The test is performed on whole blood; flow cytometry is used to quantify CD63 expression on the surface of activated basophils.
To evaluate degranulation via CD63 expression, the Flow CAST® kit has been partially used. This test includes an anti-IgE receptor. The inventors have only used the latter activator.
These different couplings make it possible to characterise cells separately and in particular basophils. 4 windowing zones will be distinguished according to whether or not CD63 labelling is observed and whether or not CCR3 labelling is observed • CD63+ and CCR3− which characterise non-basophilic degranulated cells. • CD63+ and CCR3+ which characterise degranulated basophils. • CD63− and CCR3− which characterise non-degranulated non-basophilic cells. • CD63− and CCR3+ which characterise non-degranulated basophils.
The degranulation protocol has been carried out using the Flow CAST. […]

histidine decarboxylase = molecular target: T1, histidine decarboxylase (Homo sapiens, UniProt P19113); details: cited from earlier work
T1 sequence (P19113 1-662): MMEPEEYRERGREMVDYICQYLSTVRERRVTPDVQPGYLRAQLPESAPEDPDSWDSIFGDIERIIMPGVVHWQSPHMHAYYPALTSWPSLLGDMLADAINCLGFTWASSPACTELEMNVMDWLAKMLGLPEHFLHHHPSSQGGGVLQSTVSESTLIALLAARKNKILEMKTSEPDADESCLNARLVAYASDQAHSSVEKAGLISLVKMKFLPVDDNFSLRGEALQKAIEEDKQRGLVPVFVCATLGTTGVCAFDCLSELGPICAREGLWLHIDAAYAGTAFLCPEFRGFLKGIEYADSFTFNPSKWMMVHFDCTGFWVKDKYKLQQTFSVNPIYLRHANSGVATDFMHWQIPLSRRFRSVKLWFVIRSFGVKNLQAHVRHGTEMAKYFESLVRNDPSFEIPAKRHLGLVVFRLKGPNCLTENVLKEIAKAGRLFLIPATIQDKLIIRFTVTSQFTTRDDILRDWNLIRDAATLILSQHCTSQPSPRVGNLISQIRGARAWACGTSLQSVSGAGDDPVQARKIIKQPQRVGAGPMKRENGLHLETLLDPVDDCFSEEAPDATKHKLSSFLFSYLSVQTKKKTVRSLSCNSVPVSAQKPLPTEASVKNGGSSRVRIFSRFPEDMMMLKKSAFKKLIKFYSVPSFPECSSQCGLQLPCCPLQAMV

[3] = tested on: BL6 mice sensitised to OVA receiving double-stranded RNA (Poly U/Poly A); assay: Whole body plethysmography (PenH) in OVA-sensitised mice given double-stranded RNA poly(A:U); assay type: in vivo, mouse
Procedure: The inventors used a C57/B16J mouse model, hereafter referred to as BL6.
The protocol simulating a double-stranded RNA viral infection has been performed with 2 groups of 15 mice; these are 8 week old female mice. A control group treated only with saline served as a negative control.
BL6 mice are treated according to the protocol below. BL6 mice have been sensitised by intraperitoneal injections of […] OVA (ovalbumin) on days 0, 2 and 4. Thereafter, from day 10 to day 15, the mice have received a daily treatment with aerosolized OVA at the concentration of 20 mg/ml or saline for 20 min, using an ultrasound nebulizer (Ultra-Neb99). One hour later, the mice received […] of poly (A:U) or saline intranasally.
Group 3 which is sensitised to OVA and also receives double stranded RNA (Poly U/Poly A) according to the protocol described above but also tritoqualine at 10 mg/kg.
Each group is analysed by whole body plethysmography and the measurements are expressed in PenH. A measurement is performed every minute until 10 minutes after the introduction of the double-stranded RNA. Tritoqualine treatment is given 1 hour before the introduction of Poly U/Poly A (double-stranded RNA).
In group 3, which is the group treated with tritoqualine at a dose of 10 mg/kg (mice with viral infection after sensitisation to ovalbumin as well) there are have the following results at time 1 minute to 10 minutes, expressed in PenH units and averaged over 15 mice: […]

[4] = Light sensitivity of the powder; assay type: physicochemical; details: white powder; degrades to Cotarnine and phthalic acid

**Q.** With `COC(=O)c1ccc2c(c1)NC(=O)/C2=C(\Nc1ccc(N(C)C(=O)CN2CCN(C)CC2)cc1)c1ccccc1` [OFEV, Nintedanib] as the compound, how does the side effects [1] read?
**A.** ~92%

**Q.** For `COCCN(CCCCc1ccc2c(n1)NCCC2)CC[C@H](Nc1ncnc2ccccc12)C(=O)O` [PLN-74809], which “inhibition of TGF-β activation” value (TGF-β activation) is on record?
**A.** up to 70%

**Q.** Which results are given for `CCOc1c(N)c2c(c(OCC)c1OCC)C(C1c3c(cc4c(c3OC)OCO4)CCN1C)OC2=O` (centres unmarked) [tritoqualine, 7-amino-4,5,6-triethoxy-3-(5,6,7,8-tetrahydro-4-methoxy-6-methyl-1,3-dioxolo[4,5-g]isoquinolin-5-yl)phthalide]?
**A.** cells still expressing CD63 ([2]; tritoqualine 5 μmol): approximately 40%; cells still expressing CD63 ([2]; tritoqualine 10 μmol): less than 2%; inhibitory action on histidine decarboxylase (histidine decarboxylase): very weak; difference in airway resistance between tritoqualine group and untreated group (statistical analysis) ([3]; 10 mg/kg, p<0.001): highly significant; airway resistance, mean of 15 mice ([3]; T1 (1 minute after double-stranded RNA), tritoqualine 10 mg/kg given 1 hour before): 3.05 PenH; airway resistance, mean of 15 mice ([3]; T2 (2 minutes), tritoqualine 10 mg/kg): 3.11 PenH; airway resistance, mean of 15 mice ([3]; T3 (3 minutes), tritoqualine 10 mg/kg): 3.13 PenH; airway resistance, mean of 15 mice ([3]; T4 (4 minutes), tritoqualine 10 mg/kg): 3.97 PenH; airway resistance, mean of 15 mice ([3]; T5 (5 minutes), tritoqualine 10 mg/kg): 4.07 PenH; airway resistance, mean of 15 mice ([3]; T6 (6 minutes), tritoqualine 10 mg/kg): 4.14 PenH; airway resistance, mean of 15 mice ([3]; T7 (7 minutes), tritoqualine 10 mg/kg): 4.02 PenH; airway resistance, mean of 15 mice ([3]; T8 (8 minutes), tritoqualine 10 mg/kg): 3.85 PenH; airway resistance, mean of 15 mice ([3]; T9 (9 minutes), tritoqualine 10 mg/kg): 3.14 PenH; airway resistance, mean of 15 mice ([3]; T10 (10 minutes), tritoqualine 10 mg/kg): 2.74 PenH; sensitivity to light [4]: very sensitive to light

From patent publication US20230201190A1, “USE OF MULTI[…] FOR TREATING THE RESPIRATORY DISTRESS AND CYTOKINE STORM SYNDROMES ASSOCIATED WITH C[…] INFECTIONS” (H4 ORPHAN PHARMA, priority 2020, published 2023)
